ChEMBL document CHEMBL4308854, “Novel indole-thiazolidinone conjugates: Design, synthesis and whole-cell phenotypic evaluation as a novel class of antimicrobial agents” (Eur J Med Chem, 2018)
In brackets after ≈: the same amount, converted by molar mass. Activity calls are given as the source filed them. The rule behind the calls is not given here.

Assays:
[1] = system: Mycobacterium tuberculosis; assay: Antitubercular activity against Mycobacterium tuberculosis RCMB 010126 clinical isolate after 4 days by microplate alamar blue assay; type: functional; settings: for MIC: Mycobacterium tuberculosis, RCMB 010126, 96 h
[2] = system: Staphylococcus aureus; assay: Antibacterial activity against Staphylococcus aureus RCMB 010028 assessed as diameter of zone inhibition after 24 hrs by agar well diffusion assay; type: functional
[3] = system: Staphylococcus aureus; assay: Antibacterial activity against Staphylococcus aureus RCMB 010028 after 24 hrs by serial dilution method; type: functional; settings: RCMB 010028, 24 h
[4] = system: Pseudomonas aeruginosa; assay: Antibacterial activity against Pseudomonas aeruginosa RCMB 010043 assessed as diameter of zone inhibition after 24 hrs by agar well diffusion assay; type: functional
[5] = system: Escherichia coli; assay: Antibacterial activity against Escherichia coli RCMB 010052 assessed as diameter of zone inhibition after 24 hrs by agar well diffusion assay; type: functional
[6] = system: Pseudomonas aeruginosa; assay: Antibacterial activity against Pseudomonas aeruginosa RCMB 010043 after 24 hrs by serial dilution method; type: functional; settings: RCMB 010043, 24 h
[7] = system: Escherichia coli; assay: Antibacterial activity against Escherichia coli RCMB 010052 after 24 hrs by serial dilution method; type: functional; settings: RCMB 010052, 24 h
[8] = system: Aspergillus fumigatus; assay: Antifungal activity against Aspergillus fumigatus RCMB 02568 after 24 hrs by serial dilution method; type: functional; settings: RCMB 02568, 24 h
[9] = system: Aspergillus fumigatus; assay: Antifungal activity against Aspergillus fumigatus RCMB 02568 assessed as diameter of zone inhibition after 48 hrs by agar well diffusion assay; type: functional
[10] = system: Candida albicans; assay: Antifungal activity against Candida albicans RCMB 05036 assessed as diameter of zone inhibition after 48 hrs by agar well diffusion assay; type: functional
[11] = system: Candida albicans; assay: Antifungal activity against Candida albicans RCMB 05036 after 24 hrs by serial dilution method; type: functional; settings: RCMB 05036, 24 h
[12] = system: Escherichia coli; assay: Potency index, ratio of ciprofloxacin MIC to compound MIC for Escherichia coli RCMB 010052; type: functional
[13] = system: Pseudomonas aeruginosa; assay: Potency index, ratio of ciprofloxacin MIC to compound MIC for Pseudomonas aeruginosa RCMB 010043; type: functional
[14] = system: Mycolicibacterium aurum; assay: Antitubercular activity against Mycobacterium aurum infected in mouse RAW264.7 cells measured after 48 hrs; type: functional
[15] = Cytotoxicity against mouse RAW264.7 cells; type: cell-based
[16] = Selectivity index, ratio of GI50 for mouse RAW264.7 cells to MIC for Mycobacterium aurum infected in mouse RAW264.7 cells; type: toxicity, cell-based; settings: read-out: Selectivity Index
[17] = Stability in mouse RAW264.7 cells measured after 48 hrs; type: ADME, cell-based; settings: raw264.7, 48 h
[18] = system: Mycobacterium tuberculosis; assay: Potency index, ratio of isoniazid MIC to compound MIC for antitubercular activity against Mycobacterium tuberculosis RCMB 010126 clinical isolate; type: functional
[19] = system: Staphylococcus aureus; assay: Potency index, ratio of ciprofloxacin MIC to compound MIC for Staphylococcus aureus RCMB 010028; type: functional

SMILES | inhibition (INH) [1] | MIC [1] | diameter of the inhibition zone (DIZ) [2] | MIC [3] | diameter of the inhibition zone (DIZ) [4] | diameter of the inhibition zone (DIZ) [5] | MIC [6] | MIC [7] | MIC [8] | diameter of the inhibition zone (DIZ) [9] | diameter of the inhibition zone (DIZ) [10] | MIC [11] | further results
CC(=O)c1sc(/N=C2\NC(=O)/C(=C/c3c[nH]c4ccccc34)S2)nc1C | 52.41% | 3.12 µg/mL (≈ 8.16 µM) | 18.9 mm | 7.81 µg/mL (≈ 20.4 µM) | 18.5 mm | 21.3 mm | 7.81 µg/mL (≈ 20.4 µM) | 1.95 µg/mL (≈ 5.1 µM) | 3.9 µg/mL (≈ 10.2 µM) | 20.3 mm | 20.9 mm | 1.95 µg/mL (≈ 5.1 µM) | 
CC(=O)c1sc(/N=C2\NC(=O)/C(=C3/C(=O)Nc4ccccc43)S2)nc1C | 63.24% | 1.56 µg/mL (≈ 4.06 µM) | 20.3 mm | 3.9 µg/mL (≈ 10.1 µM) | 19.9 mm | 22.8 mm | 3.9 µg/mL (≈ 10.1 µM) | 0.98 µg/mL (≈ 2.55 µM) | 1.95 µg/mL (≈ 5.07 µM) | 21.5 mm | 22.7 mm | 0.98 µg/mL (≈ 2.55 µM) | Ratio [12]: 2
COc1ccc2c(c1)/C(=C1/S/C(=N/c3nc(C)c(C(C)=O)s3)NC1=O)C(=O)N2 | 64.35% | 1.56 µg/mL (≈ 3.76 µM) | 21.7 mm | 1.95 µg/mL (≈ 4.7 µM) | 21.4 mm | 22.4 mm | 1.95 µg/mL (≈ 4.7 µM) | 1.95 µg/mL (≈ 4.7 µM) | 1.95 µg/mL (≈ 4.7 µM) | 20.8 mm | 21.3 mm | 1.95 µg/mL (≈ 4.7 µM) | Ratio [13]: 2
CCOC(=O)c1sc(/N=C2\NC(=O)/C(=C3/C(=O)N(C)c4ccccc43)S2)nc1C | 76.35% | 0.39 µg/mL (≈ 0.91 µM) | 21.8 mm | 1.95 µg/mL (≈ 4.55 µM) | 21.5 mm | 21.5 mm | 1.95 µg/mL (≈ 4.55 µM) | 1.95 µg/mL (≈ 4.55 µM) | 1.95 µg/mL (≈ 4.55 µM) | 21.6 mm | 22.4 mm | 0.98 µg/mL (≈ 2.29 µM) | MIC [14]: 200 µg/mL (≈ 467 µM); GI50 [15]: 500 µg/mL (≈ 1170 µM); selectivity ratio [16]: 2.5; Ratio [13]: 2; Stability [17]: Stable
CCOC(=O)c1sc(/N=C2\NC(=O)/C(=C3/C(=O)Nc4ccc(F)cc43)S2)nc1C | 62.15% | 1.56 µg/mL (≈ 3.61 µM) | 20.5 mm | 3.9 µg/mL (≈ 9.02 µM) | 20.2 mm | 21.5 mm | 3.9 µg/mL (≈ 9.02 µM) | 1.95 µg/mL (≈ 4.51 µM) | 1.95 µg/mL (≈ 4.51 µM) | 21.3 mm | 22.1 mm | 1.95 µg/mL (≈ 4.51 µM) | 
CC(=O)c1sc(/N=C2\NC(=O)/C(=C/c3cn(C)c4ccccc34)S2)nc1C | 34.32% |  | 15.3 mm |  | 14.2 mm | 15.9 mm |  |  |  | 16.2 mm | 16.9 mm |  | 
NNC(=O)c1ccncc1 [ISONIAZID] |  | 0.78 µg/mL (≈ 5.69 µM) |  |  |  |  |  |  |  |  |  |  | 
CC(=O)c1sc(/N=C2\NC(=O)/C(=C3/C(=O)Nc4ccc(Br)cc43)S2)nc1C | 43.21% | 12.5 µg/mL (≈ 26.9 µM) | 18.5 mm |  | 18.6 mm | 20.4 mm |  |  |  | 17.6 mm | 18.8 mm |  | 
CCOC(=O)c1sc(/N=C2\NC(=O)/C(=C3/C(=O)N(C)c4ccc(Cl)cc43)S2)nc1C | 68.31% | 0.78 µg/mL (≈ 1.68 µM) | 21.4 mm | 1.95 µg/mL (≈ 4.21 µM) | 21.5 mm | 22.3 mm | 1.95 µg/mL (≈ 4.21 µM) | 0.98 µg/mL (≈ 2.12 µM) | 3.9 µg/mL (≈ 8.42 µM) | 20.8 mm | 21.3 mm | 1.95 µg/mL (≈ 4.21 µM) | Ratio [13]: 2; Ratio [12]: 2
CCOC(=O)c1sc(/N=C2\NC(=O)/C(=C/c3cn(Cc4ccccc4)c4ccccc34)S2)nc1C |  |  | inactive |  | inactive | inactive |  |  |  | inactive | inactive |  | inhibition [1]: inactive
CCOC(=O)c1sc(/N=C2\NC(=O)/C(=C3/C(=O)Nc4ccc(OC)cc43)S2)nc1C | 84.35% | 0.39 µg/mL (≈ 0.877 µM) | 22.7 mm | 0.98 µg/mL (≈ 2.2 µM) | 22.1 mm | 22.6 mm | 1.95 µg/mL (≈ 4.39 µM) | 0.98 µg/mL (≈ 2.2 µM) | 1.95 µg/mL (≈ 4.39 µM) | 22.1 mm | 23.3 mm | 0.98 µg/mL (≈ 2.2 µM) | MIC [14]: > 200 µg/mL; GI50 [15]: > 62.5 µg/mL; selectivity ratio [16]: < 0.312; Ratio [18]: 2; Ratio [19]: 2; Ratio [13]: 2; Ratio [12]: 2; Stability [17]: Stable
CC(=O)c1sc(/N=C2\NC(=O)/C(=C3/C(=O)N(Cc4ccccc4)c4ccccc43)S2)nc1C | 58.34% | 1.56 µg/mL (≈ 3.29 µM) | 21.2 mm | 1.95 µg/mL (≈ 4.11 µM) | 20.3 mm | 23.4 mm | 3.9 µg/mL (≈ 8.22 µM) | 0.98 µg/mL (≈ 2.07 µM) | 1.95 µg/mL (≈ 4.11 µM) | 21.7 mm | 22.5 mm | 0.98 µg/mL (≈ 2.07 µM) | Ratio [12]: 2
CCOC(=O)c1sc(/N=C2\NC(=O)/C(=C/c3c[nH]c4ccccc34)S2)nc1C | 46.35% | 6.24 µg/mL (≈ 15.1 µM) | 18.9 mm | 3.9 µg/mL (≈ 9.45 µM) | 18.5 mm | 21.3 mm | 7.81 µg/mL (≈ 18.9 µM) | 1.95 µg/mL (≈ 4.73 µM) | 3.9 µg/mL (≈ 9.45 µM) | 20.3 mm | 20.9 mm | 1.95 µg/mL (≈ 4.73 µM) | 
CCOC(=O)c1sc(/N=C2\NC(=O)/C(=C3/C(=O)Nc4ccc(Br)cc43)S2)nc1C | 86.31% | 1.56 µg/mL (≈ 3.16 µM) | 20.1 mm | 3.9 µg/mL (≈ 7.9 µM) | 19.4 mm | 21.1 mm | 3.9 µg/mL (≈ 7.9 µM) | 1.95 µg/mL (≈ 3.95 µM) | 3.9 µg/mL (≈ 7.9 µM) | 20.6 mm | 21.3 mm | 1.95 µg/mL (≈ 3.95 µM) | 
CCOC(=O)c1sc(/N=C2\NC(=O)/C(=C/c3cn(C)c4ccccc34)S2)nc1C |  |  | inactive |  | inactive | inactive |  |  |  | inactive | inactive |  | inhibition [1]: inactive
CC(=O)c1sc(/N=C2\NC(=O)/C(=C3/C(=O)Nc4ccc(OC(F)(F)F)cc43)S2)nc1C | 41.58% | 12.5 µg/mL (≈ 26.6 µM) | 14.3 mm |  | 13.9 mm | 14.2 mm |  |  |  | 15.6 mm | 16.2 mm |  | 
CC(=O)c1sc(/N=C2\NC(=O)/C(=C3/C(=O)Nc4ccc(F)cc43)S2)nc1C | 43.26% | 12.5 µg/mL (≈ 31 µM) | 18.6 mm |  | 19.1 mm | 20.6 mm |  |  |  | 18.1 mm | 19.1 mm |  | 
C[C@@H]1[C@H](O)[C@@H](C)/C=C/C=C/C=C/C=C/C=C/C=C/C=C/[C@H](O[C@@H]2O[C@H](C)[C@@H](O)[C@H](N)[C@@H]2O)C[C@@H]2O[C@](O)(C[C@@H](O)C[C@@H](O)[C@H](O)CC[C@@H](O)C[C@@H](O)CC(=O)O[C@H]1C)C[C@H](O)[C@H]2C(=O)O [AMPHOTERICIN B] |  |  |  |  |  |  |  |  | 1.95 µg/mL (≈ 2.11 µM) | 23.7 mm | 25.4 mm | 0.98 µg/mL (≈ 1.06 µM) | 
CC(=O)c1sc(/N=C2\NC(=O)/C(=C/c3cn(Cc4ccccc4)c4ccccc34)S2)nc1C | 56.35% | 1.56 µg/mL (≈ 3.3 µM) | 20.6 mm | 1.95 µg/mL (≈ 4.13 µM) | 17.3 mm | 20.3 mm | 15.6 µg/mL (≈ 33.1 µM) | 3.9 µg/mL (≈ 8.25 µM) | 3.9 µg/mL (≈ 8.25 µM) | 20.3 mm | 16.2 mm | 31.2 µg/mL (≈ 66.1 µM) | 
